In ChEMBL document CHEMBL3885861, “Open TG-GATES”:

Organism: Rattus norvegicus
Test: Open TG-GATES - Regimen: Single
Assay type: toxicity, organism-based, Sprague-Dawley
Parameters: regimen Single, gender Male, age 6 weeks
Settings: in vivo, po, 300 mg/kg, route gavage, dose level Low; for APTT / Bas / Eos / Fbg / Hb / Ht / Lym / MCH / MCHC / MCV / Mono / Neu / PT / Plat / RBC / Ret / WBC: tissue Blood; for KIDNEY_L / KIDNEY_R / KIDNEY_TOTAL: tissue Kidney; for LIVER: tissue Liver; for A/G / ALP / ALT / AST / BUN / CRE / Ca / Cl / DBIL / GLC / IP / K / LDH / Na / PL / RALB / TBIL / TC / TG / TP / gamma-GTP: tissue Plasma

CCOc1ccc(NC(=O)CC(C)O)cc1 (configuration not stated) [BUCETIN]
TERMINAL_BW (3 h): 213.6 g
APTT (3 h): 15.8 s
Bas (3 h): 0%
Eos (3 h): 0.8%
Fbg (3 h): 292.8 mg/dL
Hb (3 h): 13 g/dL
Ht (3 h): 39%
Lym (3 h): 77.8%
MCH (3 h): 21.4 pg
MCHC (3 h): 33.3%
MCV (3 h): 64.3 fL
Mono (3 h): 2.6%
Neu (3 h): 18.2%
PT (3 h): 13.7 s
Plat (3 h): 117.1 x10_4/uL
RBC (3 h): 608.2 x10_4/ul
Ret (3 h): 8.5%
WBC (3 h): 68.4 x10_2/uL
KIDNEY_L (3 h): 1 g
KIDNEY_R (3 h): 1 g
KIDNEY_TOTAL (3 h): 1.9 g
LIVER (3 h): 9.6 g
A/G (3 h): 0.9
ALP (3 h): 1395.4 IU/L
ALT (3 h): 33.2 IU/L
AST (3 h): 66.8 IU/L
BUN (3 h): 9.4 mg/dL
CRE (3 h): 0.2 mg/dL
Ca (3 h): 10.7 mg/dL
Cl (3 h): 104.8 meq/L
DBIL (3 h): 0.026 mg/dL
GLC (3 h): 181 mg/dL
IP (3 h): 9.1 mg/dL
K (3 h): 4.2 meq/L
LDH (3 h): 73.8 IU/L
Na (3 h): 140.6 meq/L
PL (3 h): 155.2 mg/dL
RALB (3 h): 2.5 g/dL
TBIL (3 h): 0.052 mg/dL
TC (3 h): 84.4 mg/dL
TG (3 h): 78 mg/dL
TP (3 h): 5.4 g/dL
gamma-GTP (3 h): 1.2 IU/L
TERMINAL_BW (6 h): 209.9 g
APTT (6 h): 15.2 s
Bas (6 h): 0%
Eos (6 h): 1%
Fbg (6 h): 292.4 mg/dL
Hb (6 h): 13.4 g/dL
Ht (6 h): 40.3%
Lym (6 h): 77%
MCH (6 h): 20.7 pg
MCHC (6 h): 33.4%
MCV (6 h): 62 fL
Mono (6 h): 2.6%
Neu (6 h): 19%
PT (6 h): 13.6 s
Plat (6 h): 112.6 x10_4/uL
RBC (6 h): 649.8 x10_4/ul
Ret (6 h): 7.8%
WBC (6 h): 80.5 x10_2/uL
KIDNEY_L (6 h): 0.9 g
KIDNEY_R (6 h): 0.9 g
KIDNEY_TOTAL (6 h): 1.8 g
LIVER (6 h): 8.7 g
A/G (6 h): 0.9
ALP (6 h): 1309.2 IU/L
ALT (6 h): 29.8 IU/L
AST (6 h): 65.8 IU/L
BUN (6 h): 8 mg/dL
CRE (6 h): 0.2 mg/dL
Ca (6 h): 10.6 mg/dL
Cl (6 h): 105 meq/L
DBIL (6 h): 0.026 mg/dL
GLC (6 h): 186 mg/dL
IP (6 h): 10.5 mg/dL
K (6 h): 4.3 meq/L
LDH (6 h): 74.4 IU/L
Na (6 h): 141.8 meq/L
PL (6 h): 139.8 mg/dL
RALB (6 h): 2.5 g/dL
TBIL (6 h): 0.058 mg/dL
TC (6 h): 77 mg/dL
TG (6 h): 44.8 mg/dL
TP (6 h): 5.3 g/dL
gamma-GTP (6 h): 1.2 IU/L
TERMINAL_BW (9 h): 206.6 g
APTT (9 h): 18.5 s
Bas (9 h): 0%
Eos (9 h): 1%
Fbg (9 h): 291.8 mg/dL
Hb (9 h): 13.1 g/dL
Ht (9 h): 39.5%
Lym (9 h): 77.2%
MCH (9 h): 20.9 pg
MCHC (9 h): 33.3%
MCV (9 h): 62.8 fL
Mono (9 h): 2%
Neu (9 h): 19.6%
PT (9 h): 14.3 s
Plat (9 h): 110.2 x10_4/uL
RBC (9 h): 628.8 x10_4/ul
Ret (9 h): 8.1%
WBC (9 h): 59.9 x10_2/uL
KIDNEY_L (9 h): 0.9 g
KIDNEY_R (9 h): 0.9 g
KIDNEY_TOTAL (9 h): 1.9 g
LIVER (9 h): 8.1 g
A/G (9 h): 0.9
ALP (9 h): 1396.8 IU/L
ALT (9 h): 31 IU/L
AST (9 h): 68.4 IU/L
BUN (9 h): 8.4 mg/dL
CRE (9 h): 0.2 mg/dL
Ca (9 h): 10.4 mg/dL
Cl (9 h): 107.2 meq/L
DBIL (9 h): 0.028 mg/dL
GLC (9 h): 182 mg/dL
IP (9 h): 10.3 mg/dL
K (9 h): 4.3 meq/L
LDH (9 h): 68.6 IU/L
Na (9 h): 142.8 meq/L
PL (9 h): 136.8 mg/dL
RALB (9 h): 2.5 g/dL
TBIL (9 h): 0.062 mg/dL
TC (9 h): 77.2 mg/dL
TG (9 h): 29.2 mg/dL
TP (9 h): 5.4 g/dL
gamma-GTP (9 h): 1.2 IU/L
TERMINAL_BW (24 h): 223.3 g
APTT (24 h): 19.1 s
Bas (24 h): 0%
Eos (24 h): 1%
Fbg (24 h): 303 mg/dL
Hb (24 h): 13.3 g/dL
Ht (24 h): 40%
Lym (24 h): 76.8%
MCH (24 h): 20.9 pg
MCHC (24 h): 33.3%
MCV (24 h): 62.9 fL
Mono (24 h): 3.4%
Neu (24 h): 18.4%
PT (24 h): 14.2 s
Plat (24 h): 121.5 x10_4/uL
RBC (24 h): 636.4 x10_4/ul
Ret (24 h): 7.7%
WBC (24 h): 109.1 x10_2/uL
KIDNEY_L (24 h): 1 g
KIDNEY_R (24 h): 1 g
KIDNEY_TOTAL (24 h): 1.9 g
LIVER (24 h): 10.8 g
A/G (24 h): 0.9
ALP (24 h): 1683.6 IU/L
ALT (24 h): 38.8 IU/L
AST (24 h): 67 IU/L
BUN (24 h): 15.4 mg/dL
CRE (24 h): 0.2 mg/dL
Ca (24 h): 11.1 mg/dL
Cl (24 h): 104.8 meq/L
DBIL (24 h): 0.02 mg/dL
GLC (24 h): 176.6 mg/dL
IP (24 h): 7.7 mg/dL
K (24 h): 4.1 meq/L
LDH (24 h): 62.6 IU/L
Na (24 h): 143.8 meq/L
PL (24 h): 171.2 mg/dL
RALB (24 h): 2.7 g/dL
TBIL (24 h): 0.05 mg/dL
TC (24 h): 89.2 mg/dL
TG (24 h): 112.8 mg/dL
TP (24 h): 5.7 g/dL
gamma-GTP (24 h): 1 IU/L
